Earlier results on one substance are cited in US20120252835A1, “STABLE TEMSIROLIMUS COMPOSITION AND PROCESS OF PREPARING SAME” (ASTRON RESEARCH LIMITED, priority 2011, published 2012).

Take “Rapamycin, 42-[3-hydroxy-2-(hydroxymethyl)-2-methylpropanoate] [Temsirolimus]”: under “ethanol, propylene glycol, polyethylene glycol and the likes”, the “Solubility in alcohols acceptable for parenteral administration” value is “soluble”. The Solubility in water result (water) is listed as “practically insoluble”.
